Like-named read-outs stand apart in the source and are kept apart here.
Key:
[1] = system: Pseudomonas aeruginosa efflux+ (MB9798), IMP-1; assay type: cell-based; settings: concentration restoring susceptibility to imipenem at 2 μg/mL in the presence of a class A, C, D serine β-lactamase inhibitor closely related to relebactam
Procedure, shortened: (§1)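 P. aeruginosa PAO1-derived IMP-1 strains, efflux+ MB9798 and efflux− MB9799, tested by standard microbroth MIC with imipenem and/or ceftazidime fixed, usually at CLSI breakpoint, plus fixed class A/C β-lactamase inhibitor against AmpC. Inhibitor titrated; concentration restoring susceptibility recorded; MB9798/MB9799 fold difference indicates efflux.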

[2] = system: Pseudomonas aeruginosa efflux− (MB9799), IMP-1; assay type: cell-based; settings: concentration restoring susceptibility to imipenem at 2 μg/mL in the presence of a class A, C, D serine β-lactamase inhibitor closely related to relebactam
Procedure, shortened: as §1

VIM-1 = VIM-1 (Pseudomonas aeruginosa (strain ATCC 15692 / DSM 22644 / CIP 104116 / JCM 14847 / LMG 12228 / 1C / PRS 101 / PAO1), UniProt A0A0F7KYQ8); assay: biochemical; settings: CCF2-FA substrate, 30 pM enzyme, 2 hours at 25° C.
Procedure, shortened: (§2)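 Enzyme activity was measured by fluorescence using CCF2-FA, a cephalosporin-linked 7-hydroxycoumarin/fluorescein substrate, with inhibitor, metallo-β-lactamase and substrate incubated together for 2 hours at 25° C. IC50 came from a 4-parameter fit of inhibition versus log inhibitor concentration.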

[3] = system: Pseudomonas aeruginosa MB9798 vs MB9799; settings: ratio MITC95 PA_9798/MITC95 PA_9799
Procedure, shortened: as §1

NDM-1 = NDM-1 (Klebsiella pneumoniae, UniProt C7C422); assay: biochemical; assay type: biochemical; settings: fluorescence assay, CCF2-FA substrate, 1 pM enzyme, 2 hours at 25° C.; read-out: NDM-1 IC50
NDM-1, sequence (C7C422 whole entry, looked up, species assumed): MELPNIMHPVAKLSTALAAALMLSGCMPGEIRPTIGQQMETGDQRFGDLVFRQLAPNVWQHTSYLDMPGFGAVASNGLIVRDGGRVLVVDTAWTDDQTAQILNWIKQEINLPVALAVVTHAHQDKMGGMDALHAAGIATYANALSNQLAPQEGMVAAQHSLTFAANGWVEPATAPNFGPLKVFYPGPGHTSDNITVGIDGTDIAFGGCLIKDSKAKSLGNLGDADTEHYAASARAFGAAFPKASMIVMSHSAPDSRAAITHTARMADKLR
Procedure, shortened: as §2

IMP-1 = IMP-1 (Serratia marcescens, UniProt P52699); assay: biochemical; assay type: biochemical; settings: fluorescence assay, CCF2-FA substrate, 2 pM enzyme, 2 hours at 25° C.; read-out: IMP-1 IC50
IMP-1, sequence (P52699 whole entry, looked up, species assumed): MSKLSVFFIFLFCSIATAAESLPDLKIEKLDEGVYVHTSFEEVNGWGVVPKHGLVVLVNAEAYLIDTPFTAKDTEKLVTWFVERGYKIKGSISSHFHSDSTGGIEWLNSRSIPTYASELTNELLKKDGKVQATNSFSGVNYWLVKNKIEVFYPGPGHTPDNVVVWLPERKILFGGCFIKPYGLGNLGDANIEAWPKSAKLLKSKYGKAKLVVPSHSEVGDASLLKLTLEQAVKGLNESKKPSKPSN
Procedure, shortened: as §2

[4] = system: Serratia marcescens expressing IMP-1 (CL5741); assay type: cell-based; settings: IMP-1 strain CL5741, with imipenem 1 μg/ml, 95% inhibition of growth
Procedure, shortened: (§3)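 Growth by absorbance after 22–24 h at 35°C defined the read-out, with imipenem fixed at 1 μg/ml alongside compound. Inocula came from overnight blood-agar colonies at 35°C, resuspended in saline and diluted 1:100 in 1.1×CAMHB.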

[5] = system: Klebsiella pneumoniae expressing VIM-1 (IHMA599644); assay type: cell-based; settings: VIM-1 strain IHMA599644, with imipenem 1 μg/ml, 95% inhibition of growth
Procedure, shortened: as §3

[6] = system: Escherichia coli expressing NDM-1 (CLB30005, CLB30016); assay type: cell-based; settings: NDM-1 strain, with imipenem 1 μg/ml, 95% inhibition of growth
Procedure, shortened: as §3

[7] = fluorescence assay, read-out: VIM-1 IC50

SMILES | P. aeruginosa expressing IMP-1, efflux + (MB9798) MITC95 [1] | P. aeruginosa expressing IMP-1, efflux − (MB9799) MITC95 [2] | IC50 (VIM-1; VIM-1 IC50, fluorescence assay) | Efflux ratio [3] | IC50 (NDM-1) | IC50 (IMP-1) | Serratia marcescens MITC95 [4] | Klebsiella pneumoniae MITC95 [5] | Escherichia coli MITC95 [6] | IC50 (VIM-1; [7])
NCCNS(=O)(=O)c1ccc(-c2cccc3ccc(N)nc23)c(-c2nn[nH]n2)c1S(N)(=O)=O [Example 355, N1-(2-aminoethyl)-4-(2-aminoquinolin-8-yl)-3-(2H-tetrazol-5-yl)benzene-1,2-disulfonamide] | 0.7813 µM | 0.7813 µM | 0.141 nM | 1.00 | 0.0509 nM | 0.2 nM | 0.7813 µM | 1.563 µM | 0.1953 µM | 
NCCNS(=O)(=O)c1ccc(-c2cccc(SC[C@H](O)CN)c2)c(-c2nn[nH]n2)c1S(N)(=O)=O [Example 356, (R)-3′-((3-amino-2-hydroxypropyl)thio)-N4-(2-aminoethyl)-2-(2H-tetrazol-5-yl)-[1,1′-biphenyl]-3,4-disulfonamide] | 0.7813 µM | 0.3906 µM | 0.244 nM | 2.00 | 1.82 nM | 1.41 nM | 0.7813 µM | 0.7813 µM | 0.7813 µM | 
NCCNS(=O)(=O)c1ccc(-c2cccc(SC[C@@H](O)CN)c2)c(-c2nn[nH]n2)c1S(N)(=O)=O [Example 357, (S)-5′-(3-amino-2-hydroxypropylthio)-N4-(2-aminoethyl)-2-(2H-tetrazol-5-yl)biphenyl-3,4-disulfonamide] | 0.7813 µM | 0.3906 µM | 0.224 nM | 2.00 | 1.26 nM | 1.21 nM | 0.7813 µM | 0.7813 µM | 0.7813 µM | 
NCCNS(=O)(=O)c1ccc(-c2cccnc2N)c(-c2nn[nH]n2)c1S(N)(=O)=O [Example 358, N1-(2-aminoethyl)-4-(2-aminopyridin-3-yl)-3-(2H-tetrazol-5-yl)benzene-1,2-disulfonamide] | 1.563 µM | 0.7813 µM |  | 2.00 | 0.319 nM | 4.05 nM | 0.3906 µM | 1.563 µM | 0.2441 µM | 0.205 nM
NCCNS(=O)(=O)c1ccc(-c2cnc3cc[nH]c3c2)c(-c2nn[nH]n2)c1S(N)(=O)=O [Example 359, N1-(2-aminoethyl)-4-(1H-pyrrolo[3,2-b]pyridin-6-yl)-3-(2H-tetrazol-5-yl)benzene-1,2-disulfonamide] | 1.563 µM | 0.7813 µM |  | 2.00 | 0.154 nM | 1.61 nM | 0.3906 µM | 1.563 µM | 0.09766 µM | 0.254 nM
NCCNS(=O)(=O)c1ccc(-c2cccn3ccnc23)c(-c2nn[nH]n2)c1S(N)(=O)=O [Example 361, N1-(2-aminoethyl)-4-(imidazo[1,2-a]pyridin-8-yl)-3-(2H-tetrazol-5-yl)benzene-1,2-disulfonamide] | 0.7813 µM | 0.7813 µM | 0.0953 nM | 1.00 | 0.143 nM | 0.147 nM | 0.7813 µM | 1.563 µM | 0.3906 µM | 
NC[C@H](CO)NS(=O)(=O)c1ccc(-c2ccnc(N)c2)c(-c2nn[nH]n2)c1S(N)(=O)=O [Example 362, (R)—N1-(1-amino-3-hydroxypropan-2-yl)-4-(2-aminopyridin-4-yl)-3-(2H-tetrazol-5-yl)benzene-1,2-disulfonamide] | 3.125 µM | 1.563 µM | 1.88 nM | 2.00 | 3.08 nM | 9.51 nM | 1.563 µM | 3.125 µM | 1.563 µM | 

Source: patent US10221163B2 (priority 2015, dated 2019)
